ChEMBL document CHEMBL1255477, “In vitro properties of BAL30072, a novel siderophore sulfactam with activity against multiresistant gram-negative bacilli” (Antimicrob Agents Chemother, 2010)
Converted amounts (≈) assume the structure as drawn. “And” between values parts separate entries of the source, which are not always exact repeats. Equal values may be shown once. The source made the active and inactive calls. The rule behind the calls is not given here.

Tests used:
[1] = system: Citrobacter freundii; test: Antimicrobial activity against Citrobacter freundii by broth dilution method; format: functional
[2] = system: Proteus vulgaris; test: Antimicrobial activity against Proteus vulgaris by broth dilution method; format: functional
[3] = system: Enterobacter cloacae; test: Antimicrobial activity against Enterobacter cloacae by broth dilution method; format: functional
[4] = system: Klebsiella pneumoniae; test: Antimicrobial activity against Klebsiella pneumoniae by broth dilution method; format: functional
[5] = system: Serratia marcescens; test: Antimicrobial activity against Serratia marcescens by broth dilution method; format: functional
[6] = system: Burkholderia sp.; test: Antimicrobial activity against Burkholderia sp. by broth dilution method; format: functional
[7] = system: Enterobacteriaceae; test: Antimicrobial activity against Enterobacteriaceae by broth dilution method; format: functional
[8] = system: Escherichia coli; test: Antimicrobial activity against Escherichia coli CF102 harboring beta-lactamase TEM-3 by broth dilution method; format: functional
[9] = system: Serratia marcescens; test: Antimicrobial activity against Serratia marcescens S6 harboring beta-lactamase SME-1.AmpC by broth dilution method; format: functional
[10] = system: Acinetobacter baumannii; test: Antimicrobial activity against Acinetobacter baumannii HPA74510 harboring beta-lactamase IMP-4 by broth dilution method; format: functional
[11] = system: Pseudomonas aeruginosa; test: Antimicrobial activity against Pseudomonas aeruginosa HPA101-1477 harboring beta-lactamase IMP-1 by broth dilution method; format: functional
[12] = system: Pseudomonas aeruginosa; test: Antimicrobial activity against Pseudomonas aeruginosa HPA10586 harboring beta-lactamase VIM-1 by broth dilution method; format: functional
[13] = Inhibition of Pseudomonas aeruginosa 143724R beta-lactamase class C
[14] = Inhibition of Escherichia coli Penicillin-binding protein 1A
[15] = Inhibition of Escherichia coli Penicillin-binding protein 1B
[16] = Inhibition of Escherichia coli Penicillin-binding protein 2
[17] = system: Pseudomonas aeruginosa; test: Antimicrobial activity against mexAB-oprM, mexCD-oprJ, mexEF-oprN, mexJK, mexXY, opmH and pscC gene deficient Pseudomonas aeruginosa PAO750 by broth dilution method; format: functional
[18] = system: Pseudomonas aeruginosa; test: Antimicrobial activity against Pseudomonas aeruginosa BA(C2-107) selected after 25 ug/ml of compound exposure by broth dilution method; format: functional
[19] = system: Enterobacter cloacae; test: Microbicidal activity against Enterobacter cloacae S9369 selected after 8 times MIC compound exposure; format: functional
[20] = system: Pseudomonas aeruginosa; test: Microbicidal activity against Pseudomonas aeruginosa 527 selected after 4 times MIC compound exposure; format: functional
[21] = system: Pseudomonas aeruginosa; test: Microbicidal activity against Pseudomonas aeruginosa (560546)9 M.P. selected after 4 times MIC compound exposure; format: functional
[22] = system: Stenotrophomonas maltophilia; test: Microbicidal activity against Stenotrophomonas maltophilia 1AC736 selected after MIC of compound exposure; format: functional
[23] = system: Acinetobacter baumannii; test: Antimicrobial activity against Acinetobacter baumannii HPA74510 assessed as log reduction in colony count after 24 hrs; format: functional
[24] = system: Pseudomonas aeruginosa; test: Antimicrobial activity against Pseudomonas aeruginosa 1024 assessed as log reduction in colony count within 6 hrs selected after 4 to 8 times MIC compound exposure; format: functional, organism-based
[25] = system: Escherichia coli; test: Antimicrobial activity against Escherichia coli W3110 assessed as appearance of spheroplast at 4 ug/mL after 3 hrs by phase-contrast microscopy; format: functional, organism-based
[26] = system: Escherichia coli; test: Antimicrobial activity against Escherichia coli W3110 assessed as appearance of short filaments at 4 ug/mL after 3 hrs by phase-contrast microscopy; format: functional, organism-based
[27] = system: Acinetobacter junii; test: Antimicrobial activity against Acinetobacter junii 15218 assessed as highest concentration at which colonies reappeared; format: functional
[28] = system: Enterobacter cloacae; test: Antimicrobial activity against Enterobacter cloacae S4741B assessed as highest concentration at which colonies reappeared; format: functional
[29] = system: Enterobacter cloacae; test: Antimicrobial activity against Enterobacter cloacae S9369 assessed as highest concentration at which colonies reappeared; format: functional
[30] = system: Escherichia coli; test: Antimicrobial activity against Escherichia coli W3110 assessed as highest concentration at which colonies reappeared; format: functional
[31] = system: Pseudomonas aeruginosa; test: Antimicrobial activity against Pseudomonas aeruginosa 860 assessed as highest concentration at which colonies reappeared; format: functional
[32] = system: Enterobacter cloacae; test: Antimicrobial activity against Enterobacter cloacae S4741B assessed as appearance of colony at 4 times MIC concentration; format: functional
[33] = system: Klebsiella pneumoniae; test: Antimicrobial activity against Klebsiella pneumoniae 1338665 assessed as appearance of colony at 4 times MIC concentration; format: functional, organism-based
[34] = system: Pseudomonas aeruginosa; test: Antimicrobial activity against Pseudomonas aeruginosa 621 assessed as appearance of colony at 4 times MIC concentration; format: functional
[35] = system: Pseudomonas aeruginosa; test: Antimicrobial activity against Pseudomonas aeruginosa 860 assessed as appearance of colony at 4 times MIC concentration; format: functional
[36] = system: Acinetobacter baumannii; test: Antimicrobial activity against Acinetobacter baumannii HPA74510 assessed as number of passages required for MIC to rise above 4 times original MIC; format: functional
[37] = system: Acinetobacter junii; test: Antimicrobial activity against Acinetobacter junii 15218 assessed as number of passages required for MIC to rise above 4 times original MIC; format: functional
[38] = Inhibition of beta-lactamase TEM-3
[39] = Inhibition of beta-lactamase SHV-4
[40] = Inhibition of beta-lactamase KPC-2
[41] = Inhibition of Beta-lactamase IMP1
[42] = Inhibition of beta-lactamase VIM-1
[43] = molecular target: AmpC (Escherichia coli, UniProt Q83TT7); test: Inhibition of Escherichia coli ATCC 25922 AmpC
[44] = molecular target: Beta-lactamase (Citrobacter freundii, UniProt P05193); test: Inhibition of Citrobacter freundii AmpC
[45] = Inhibition of Pseudomonas aeruginosa 18S/H beta-lactamase class C
[46] = system: Acinetobacter baumannii; test: Antimicrobial activity against Acinetobacter baumannii HPA 327009 harboring beta-lactamase OXA-25 by broth dilution method; format: functional
[47] = system: Pseudomonas aeruginosa; test: microbe, parasite or virus in culture; settings: BA
Description: Antimicrobial activity against Pseudomonas aeruginosa BA harboring beta-lactamase Class C by broth dilution method

[48] = system: Pseudomonas aeruginosa; test: microbe, parasite or virus in culture; settings: 18S/H
Description: Antimicrobial activity against Pseudomonas aeruginosa 18S/H harboring beta-lactamase Class C by broth dilution method

[49] = system: Pseudomonas aeruginosa; test: Antimicrobial activity against Pseudomonas aeruginosa BA assessed as doubling time; format: functional
[50] = system: Pseudomonas aeruginosa; test: Antimicrobial activity against Pseudomonas aeruginosa BA(C1-106) mutant assessed as doubling time; format: functional
[51] = system: Acinetobacter baumannii; test: Antimicrobial activity against Acinetobacter baumannii HPA74510 selected after 4 times MIC compound exposure; format: functional
[52] = system: Enterobacter cloacae; test: Antimicrobial activity against Enterobacter cloacae S9369 selected after MIC of compound exposure by broth dilution method; format: functional
[53] = system: Pseudomonas aeruginosa; test: Microbicidal activity against Pseudomonas aeruginosa BA selected after 4 times MIC compound exposure; format: functional
[54] = system: Pseudomonas aeruginosa; test: Antimicrobial activity against Pseudomonas aeruginosa HPA10586 by broth dilution method; format: functional
[55] = system: Stenotrophomonas maltophilia; test: Microbicidal activity against Stenotrophomonas maltophilia 1AC736 selected after 2 times MIC compound exposure; format: functional
[56] = system: Acinetobacter junii; test: Antimicrobial activity against Acinetobacter junii 15218 by broth dilution method; format: functional
[57] = system: Enterobacter cloacae; test: Antimicrobial activity against Enterobacter cloacae S4741B by broth dilution method; format: functional
[58] = system: Klebsiella pneumoniae; test: Antimicrobial activity against Klebsiella pneumoniae 1338665 by broth dilution method; format: functional
[59] = system: Pseudomonas aeruginosa; test: Antimicrobial activity against Pseudomonas aeruginosa 527 by broth dilution method; format: functional

AmpC, sequence (Q83TT7 whole entry): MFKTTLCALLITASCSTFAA
Beta-lactamase, sequence (P05193 whole entry): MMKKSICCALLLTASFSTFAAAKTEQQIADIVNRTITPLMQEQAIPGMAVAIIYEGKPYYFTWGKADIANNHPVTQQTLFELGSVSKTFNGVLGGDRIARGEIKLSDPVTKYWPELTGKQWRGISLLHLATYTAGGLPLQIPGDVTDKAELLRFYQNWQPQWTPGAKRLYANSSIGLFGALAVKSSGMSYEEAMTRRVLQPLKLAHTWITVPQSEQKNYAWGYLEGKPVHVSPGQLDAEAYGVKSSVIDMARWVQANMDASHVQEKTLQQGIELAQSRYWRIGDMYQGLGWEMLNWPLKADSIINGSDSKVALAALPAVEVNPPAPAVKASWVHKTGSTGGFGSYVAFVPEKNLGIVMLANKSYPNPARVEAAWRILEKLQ

CC1(C)[C@H](NC(=O)/C(=N\OCc2cc(=O)c(O)cn2O)c2csc(N)n2)C(=O)N1OS(=O)(=O)O (stereo in doubt)
MIC50 [1]: 4 mg/L (≈ 7.71 µM)
MIC90 [1]: 16 mg/L (≈ 30.9 µM)
MIC [2]: ≤ 0.06 mg/L
MIC50 [2]: ≤ 0.06 mg/L
MIC90 [2]: 0.25 mg/L (≈ 0.482 µM)
MIC50 [3]: 4 mg/L (≈ 7.71 µM)
MIC90 [3]: > 32 mg/L
MIC50 [4]: 16 mg/L (≈ 30.9 µM)
MIC90 [4]: > 32 mg/L
MIC50 [5]: 2 mg/L (≈ 3.86 µM)
MIC90 [5]: 4 mg/L (≈ 7.71 µM)
MIC [6]: ≤ 0.06 mg/L
MIC50 [6]: ≤ 0.06 mg/L
MIC90 [6]: 0.125 mg/L (≈ 0.241 µM)
MIC50 [7]: 2 mg/L (≈ 3.86 µM)
MIC [8]: 4 mg/L (≈ 7.71 µM)
MIC [9]: ≤ 0.06 mg/L
MIC [10]: 0.25 mg/L (≈ 0.482 µM)
MIC [11]: 2 mg/L (≈ 3.86 µM)
MIC [12]: 2 mg/L (≈ 3.86 µM)
IC50 [13]: 27 µM
IC50 [14]: 3.9 µM
IC50 [15]: 1.9 µM
IC50 [16]: 30 µM
MIC [17]: ≤ 0.06 mg/L
MIC [18]: 8 mg/L (≈ 15.4 µM)
MBC [19]: 8 mg/L (≈ 15.4 µM)
MBC [20]: 8 mg/L (≈ 15.4 µM)
MBC [21]: 4 mg/L (≈ 7.71 µM)
MBC [22]: 0.125 mg/L
FC [23]: 3
Activity [24]: Active
Activity [25]: Active
Activity [26]: Active
Activity [27]: 1 mg/L
Activity [28]: 16 mg/L
Activity [29]: 8 mg/L
Activity [30]: 1 mg/L
Activity [31]: 32 mg/L
Activity [32]: 7 frequency
Activity [33]: Active
Activity [34]: 2.8 frequency and 2.5 frequency
Activity [35]: 7 frequency
Activity [36]: 6 passages
Activity [37]: 20 passages
IC50 [38]: 4.6 µM
IC50 [39]: 4.3 µM
IC50 [40]: > 2500 µM
IC50 [41]: > 2500 µM
IC50 [42]: > 500 µM
IC50 [43]: 0.5 µM
IC50 [44]: 2.7 µM
IC50 [45]: 28 µM
MIC [46]: 4 mg/L (≈ 7.71 µM)
MIC [47]: 0.5 mg/L (≈ 0.964 µM)
MIC [48]: 2 mg/L (≈ 3.86 µM)

C[C@@H](O)[C@H]1C(=O)N2C(C(=O)O)=C(S[C@@H]3CN[C@H](C(=O)N(C)C)C3)[C@H](C)[C@H]12 [MEROPENEM]
MIC [1]: ≤ 0.06 mg/L
MIC50 [1]: ≤ 0.06 mg/L
MIC90 [1]: 0.25 mg/L (≈ 0.652 µM)
MIC50 [2]: 0.125 mg/L (≈ 0.326 µM)
MIC90 [2]: 0.5 mg/L (≈ 1.3 µM)
MIC [3]: ≤ 0.06 mg/L
MIC50 [3]: ≤ 0.06 mg/L
MIC90 [3]: 0.25 mg/L (≈ 0.652 µM)
MIC50 [4]: ≤ 0.06 mg/L
MIC90 [4]: 16 mg/L (≈ 41.7 µM)
MIC50 [5]: 0.125 mg/L (≈ 0.326 µM)
MIC90 [5]: 4 mg/L (≈ 10.4 µM)
MIC50 [6]: 2 mg/L (≈ 5.22 µM)
MIC90 [6]: 4 mg/L (≈ 10.4 µM)
MIC [8]: ≤ 0.06 mg/L
MIC [9]: 32 mg/L (≈ 83.4 µM)
MIC [10]: 32 mg/L (≈ 83.4 µM)
MIC [11]: > 32 mg/L
MIC [12]: > 32 mg/L
Time [49]: 1.5 h
Time [50]: 3.8 h
MIC [51]: > 128 mg/L
MBC [52]: 2 mg/L
MBC [53]: 2 mg/L (≈ 5.22 µM)
MIC [54]: > 128 mg/L
MBC [55]: 16 mg/L (≈ 41.7 µM)
MIC [17]: 0.5 mg/L (≈ 1.3 µM)
MIC [18]: 2 mg/L (≈ 5.22 µM)
MIC [56]: 0.25 mg/L (≈ 0.652 µM)
MIC [57]: 1 mg/L (≈ 2.61 µM)
MIC [58]: 4 mg/L (≈ 10.4 µM)
MIC [59]: 2 mg/L (≈ 5.22 µM)
Activity [32]: Active
Activity [33]: inactive
Activity [34]: 1 frequency
Activity [35]: 1 frequency
Activity [36]: inactive
Activity [37]: 9 passages
MIC [46]: > 32 mg/L
MIC [47]: 1 mg/L (≈ 2.61 µM)
MIC [48]: 2 mg/L (≈ 5.22 µM)
